The text below walks through data of US20080214807A1, “Substituted Spiro Compounds and their Use for Producing Drugs” (Gruenenthal GmbH, priority 2005, published 2008).

In one assay the target is T1, VR1 (human) (Homo sapiens, UniProt Q8NER1).
T1 construct: expressed in transfected cells; host or cells: CHO K1 cells (ECACC)
As to the kind of experiment: Functional testing on vanilloid receptor VR1, FLIPR Ca2+ inflow assay (CHO K1 cells stably transfected with the VR1 gene). It counts as cell-based. Conditions: test compound 10 μM; for inhibition at 10 µM / activation at 10 µM: CHO-K1; for inhibition at 10 µM / VR1 (human) (% inhibition compared to 10 μM CP): 5 min incubation, then 100 nM capsaicin, relative to maximum achievable inhibition with 10 μM capsaicin; for inhibition at 10 µM: read-out: VR1 (human) (% inhibition compared to 10 μM CP); for activation at 10 µM / VR1 (human) (% stimulation compared to 10 μM CP): Ca2+ inflow relative to signal of 10 μM capsaicin (CP); for activation at 10 µM: read-out: VR1 (human) (% stimulation compared to 10 μM CP). The text has this:
II. Functional Testing Carried out on the Vanilloid Receptor (VR1)
The agonistic or antagonistic effect of the substances to be tested can also be determined on the vanilloid receptor (VR1) using the following assay. According to this assay, the Ca^2+ inflow is quantified through the channel using a Ca^2+-sensitive dye (type Fluo-4, Molecular Probes Europe BV, Leiden, Netherlands) in a fluorescent imaging plate reader (FLIPR, Molecular Devices, Sunnyvale, USA).
Chinese hamster ovary cells (CHO K1 cells, European Collection of Cell Cultures (ECACC) United Kingdom) were stably transfected with the VR1 gene. For functional testing, these cells were plated out on poly-D-lysine-coated black 96 well plates having a clear base (BD Biosciences, Heidelberg, Germany) at a density of 25,000 cells/well. The cells were incubated overnight at 37° C. and 5% CO2 in a culture medium (Ham's F12 nutrient mixture, 10-% by volume of FCS (foetal calf serum), 18 μg/ml L-proline). The next day the cells were incubated with Fluo-4 (Fluo-4 2 μM, 0.01% by volume of Pluronic F127, Molecular Probes in HBSS (Hank's buffered saline solution), Gibco Invitrogen GmbH, Karlsruhe, Germany) for 30 minutes at 37° C. Subsequently, the plates were washed 3 times with HBSS buffer and after further incubation for 15 minutes at room temperature used for Ca^2+ measurement in a FLI PR assay. The Ca^2+-dependent fluorescence was measured before and after the addition of the substances to be tested (λex wavelength=488 nm, λem=540 nm). Quantification was carried out by measuring the highest fluorescence intensity (FC, Fluorescence Counts) over time.
The FLIPR protocol consists of 2 substance additions. First the compounds to be tested (10 μM) were pipetted onto the cells and the Ca^2+ inflow was compared with the control (capsaicin 10 μM) (% activation based on the Ca^2+ signal after the addition of 10 μM capsaicin). After 5 minutes' incubation, 100 nM of capsaicin were administered and the Ca^2+ inflow was also determined.
Desensitising agonists and antagonists led to suppression of the Ca^2+ inflow. The % inhibition was calculated compared to the maximum achievable inhibition with 10 μM of capsaicin.

Assay [1] has as its target T2, rat-species vanilloid receptor 1 (VR1/TRPV1) (Rattus norvegicus, UniProt O35433).
T2 construct: endogenous in cells; host or cells: primary cultured rat dorsal root ganglion cells
Description: Functional testing on vanilloid receptor 1 (VR1/TRPV1), FLIPR Ca2+ inflow assay in rat dorsal root ganglia cells. It counts as cell-based. Conditions: test compound 10 μM; for inhibition at 10 µM / VR1 (rat) (% inhibition compared to 10 μM CP): 5 min incubation, then 100 nM capsaicin, relative to maximum achievable inhibition with 10 μM capsaicin; for inhibition at 10 µM: read-out: VR1 (rat) (% inhibition compared to 10 μM CP); for activation at 10 µM / VR1 (rat) (% stimulation compared to 10 μM CP): Ca2+ inflow relative to signal of 10 μM capsaicin (CP); for activation at 10 µM: read-out: VR1 (rat) (% stimulation compared to 10 μM CP). The text has this: I. Functional Testing Carried out on the Vanilloid Receptor 1 (VRI/TRPV1 Receptor)
The agonistic or antagonistic effect of the substances to be tested can be determined on the rat-species vanilloid receptor 1 (VR1/TRPV1) using the following assay. According to this assay, the Ca^2+ inflow is quantified through the receptor channel using a Ca^2+-sensitive dye (type Fluo-4, Molecular Probes Europe BV, Leiden, Netherlands) in a fluorescent imaging plate reader (FLIPR, Molecular Devices, Sunnyvale, USA).
Complete medium: 50 mL HAMS F12 nutrient mixture (Gibco Invitrogen GmbH, Karlsruhe, Germany) with
10% by volume of FCS (foetal calf serum, Gibco Invitrogen GmbH, Karlsruhe, Germany, […]);
2 mM L-glutamine (Sigma, Munich, Germany);
1% by weight of AA solution (antibiotic/antimyotic solution, PAA, Pasching, Austria) and 25 ng/ml NGF medium (2.5 S, Gibco Invitrogen GmbH, Karlsruhe, Germany)
Cell culture plate: Poly-D-lysine-coated, black 96 well plates having a clear base (96 well black/clear plate, BD Biosciences, Heidelberg, Germany) were additionally coated with laminin (Gibco Invitrogen GmbH, Karlsruhe, Germany), the laminin being diluted with PBS (Ca—Mg-free PBS, Gibco Invitrogen GmbH, Karlsruhe, Germany) to a concentration of 100 μg/mL. Aliquots having a laminin concentration of 100 μg/mL were removed and stored at −20° C. The aliquots were diluted with PBS in a ratio of 1:10 to 10 μg/mL laminin and in each case 50 μL of the solution were pipetted into a recess in the cell culture plate. The cell culture plates were incubated for at least two hours at 37° C., the excess solution was removed by suction-filtration and the recesses were each washed twice with PBS. The coated cell culture plates were stored with excess PBS which was not removed until just before the feeding of the cells.
Preparation of the Cells:
The vertebral column was removed from decapitated rats and placed immediately into cold HBSS buffer (Hank's buffered saline solution, Gibco Invitrogen GmbH, Karlsruhe, Germany), i.e. buffer located in an ice bath, mixed with 1% by volume (percent by volume) of an AA solution (antibiotic/antimyotic solution, PAA, Pasching, Austria). The vertebral column was cut longitudinally and removed together with fasciae from the vertebral canal. Subsequently, the dorsal root ganglia (DRG) were removed and again stored in cold HBSS buffer mixed with 1% by volume of an AA solution. The DRG, from which all blood remnants and spinal nerves had been removed, were transferred in each case to 500 μL of cold type 2 collagenase (PAA, Pasching, Austria) and incubated for 35 minutes at 37° C. After the addition of 2.5% by volume of trypsin (PAA, Pasching, Austria), incubation was continued for 10 minutes at 37° C. After complete incubation, the enzyme solution was carefully pipetted off and 500 μL of complete medium were added to each of the remaining DRG. The DRG were in each case suspended several times, drawn through cannulae No. 1, No. 12 and No. 16 using a syringe and transferred to a 50 mL Falcon tube which was filled up to 15 mL with complete medium. The contents of each Falcon tube was in each case filtered through a 70 μm Falcon filter element and centrifuged for 10 minutes at 1,200 rpm and room temperature. The resulting pellet was in each case taken up in 250 μL of complete medium and the number of cells determined.
The number of cells in the suspension was set to 3×10^5 per mL and 150 μL of this suspension were in each case introduced into a recess in the cell culture plates coated as described hereinbefore. In the incubator the plates were left for two to three days at 37° C., 5% by volume of CO2 and 95% relative humidity. […]

SMILES strings stand for the structures.

T2 sequence (O35433 whole entry): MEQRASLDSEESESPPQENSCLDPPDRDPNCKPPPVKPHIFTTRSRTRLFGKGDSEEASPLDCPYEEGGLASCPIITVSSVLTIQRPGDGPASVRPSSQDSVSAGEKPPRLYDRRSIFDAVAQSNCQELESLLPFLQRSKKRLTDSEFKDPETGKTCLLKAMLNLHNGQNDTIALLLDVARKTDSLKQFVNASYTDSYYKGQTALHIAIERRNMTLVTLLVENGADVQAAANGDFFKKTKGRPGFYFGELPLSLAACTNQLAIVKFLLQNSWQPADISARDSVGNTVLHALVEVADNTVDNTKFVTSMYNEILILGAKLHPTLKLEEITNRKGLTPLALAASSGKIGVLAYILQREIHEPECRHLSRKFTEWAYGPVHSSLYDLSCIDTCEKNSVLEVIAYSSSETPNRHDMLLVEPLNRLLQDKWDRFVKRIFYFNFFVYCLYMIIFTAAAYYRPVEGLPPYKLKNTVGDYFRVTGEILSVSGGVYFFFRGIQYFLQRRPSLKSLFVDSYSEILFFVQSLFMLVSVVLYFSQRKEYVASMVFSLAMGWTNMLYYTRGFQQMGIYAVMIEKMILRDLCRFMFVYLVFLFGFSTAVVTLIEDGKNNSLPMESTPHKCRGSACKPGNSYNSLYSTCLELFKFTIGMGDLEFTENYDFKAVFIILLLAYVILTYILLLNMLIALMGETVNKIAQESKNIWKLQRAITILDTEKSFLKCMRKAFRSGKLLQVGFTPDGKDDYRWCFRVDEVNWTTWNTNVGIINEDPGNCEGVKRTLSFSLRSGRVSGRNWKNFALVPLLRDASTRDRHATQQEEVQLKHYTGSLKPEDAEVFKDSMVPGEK
T1 sequence (Q8NER1 whole entry): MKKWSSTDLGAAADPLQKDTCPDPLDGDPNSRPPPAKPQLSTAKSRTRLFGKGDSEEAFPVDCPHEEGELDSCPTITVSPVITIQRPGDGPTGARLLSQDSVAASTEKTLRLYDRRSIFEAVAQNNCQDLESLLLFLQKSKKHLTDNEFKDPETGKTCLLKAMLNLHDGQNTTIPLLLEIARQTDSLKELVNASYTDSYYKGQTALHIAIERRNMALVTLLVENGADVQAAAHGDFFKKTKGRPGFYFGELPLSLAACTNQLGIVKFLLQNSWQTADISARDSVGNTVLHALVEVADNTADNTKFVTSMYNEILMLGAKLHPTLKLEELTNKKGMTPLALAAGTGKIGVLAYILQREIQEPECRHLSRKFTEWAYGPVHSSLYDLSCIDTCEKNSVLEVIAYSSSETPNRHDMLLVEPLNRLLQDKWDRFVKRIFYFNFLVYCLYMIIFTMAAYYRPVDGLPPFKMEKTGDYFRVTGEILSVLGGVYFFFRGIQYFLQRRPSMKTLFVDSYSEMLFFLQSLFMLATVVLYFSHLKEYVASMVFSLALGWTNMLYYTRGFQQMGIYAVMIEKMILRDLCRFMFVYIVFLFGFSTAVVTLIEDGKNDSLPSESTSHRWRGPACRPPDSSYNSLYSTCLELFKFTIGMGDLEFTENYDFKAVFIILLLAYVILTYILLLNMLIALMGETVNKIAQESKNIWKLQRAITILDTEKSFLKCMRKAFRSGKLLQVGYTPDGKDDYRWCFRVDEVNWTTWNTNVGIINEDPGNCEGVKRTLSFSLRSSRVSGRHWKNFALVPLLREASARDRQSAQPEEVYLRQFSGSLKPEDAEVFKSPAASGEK

As for `O=C(Nc1ccccc1F)N1CCC2(CC1)CC(C(=O)N1CCN(c3ncccc3Cl)CC1)=NO2` [Example 1, 3-[4-(3-chloropyridin-2-yl)piperazine-1-carbonyl]-1-oxa-2,8-diazaspiro[4.5]dec-2-ene-8-carboxylic acid-(2-fluorophenyl)amide], the inhibition (commonly the percentage by which the read-out fell short of the control) at 10 µM on VR1 (human) was 33.6%; in assay [1], 34.2%. Further, the activation at 10 µM at VR1 (human) turned out to be 4.85%; in assay [1], 6.37%.

Turning to `O=C(Nc1ccc(Cl)cn1)C1=NOC2(CCN(C(=O)Nc3ccccc3Cl)CC2)C1` [Example 9, 1-oxa-2,8-diazaspiro[4.5]dec-2-ene-3,8-dicarboxylic acid-8-[(2-chlorophenyl)amide]-3-[(5-chloropyridin-2-yl)amide]], on VR1 (human), the “VR1 (human) (% inhibition compared to 10 μM CP)” value is on record as 26.23% and the “VR1 (human) (% stimulation compared to 10 μM CP)” value was −0.48%. For the same molecule, in assay [1], the “VR1 (rat) (% inhibition compared to 10 μM CP)” value is recorded as 45.63% and the “VR1 (rat) (% stimulation compared to 10 μM CP)” value was 0.23%.

Regarding `O=C(Nc1cccc(Br)c1)N1CCC2(CC1)CC(C(=O)N1CCN(c3ncccc3Cl)CC1)=NO2` [Example 11, 3-[4-(3-chloropyridin-2-yl)piperazine-1-carbonyl]-1-oxa-2,8-diazaspiro[4.5]dec-2-ene-8-carboxylic acid-(3-bromophenyl)amide], on VR1 (human), the inhibition at 10 µM was 37.3% and the activation at 10 µM is -0.15%. Further, in assay [1], the inhibition at 10 µM turned out to be 41.3% and the activation at 10 µM worked out at 11.4%.

For the molecule `COc1cccc(NC(=O)N2CCC3(CC2)CC(C(=O)NCc2ccc(OC)c(OC)c2)=NO3)c1` [Example 16, 1-oxa-2,8-diazaspiro[4.5]dec-2-ene-3,8-dicarboxylic acid-3-(3,4-dimethoxybenzylamide)-8-[(3-methoxyphenyl)amide]], at VR1 (human), the “VR1 (human) (% inhibition compared to 10 μM CP)” value amounted to 0.77% and the “VR1 (human) (% stimulation compared to 10 μM CP)” value is 0.40%. Further, in assay [1], the “VR1 (rat) (% inhibition compared to 10 μM CP)” value is recorded as 8.65% and the “VR1 (rat) (% stimulation compared to 10 μM CP)” value came to 0.00%.

Regarding `COc1cccc(NC(=O)N2CCC3(CC2)CC(C(=O)N2CCN(c4ncccc4Cl)CC2)=NO3)c1` [Example 17, 3-[4-(3-chloropyridin-2-yl)piperazine-1-carbonyl]-1-oxa-2,8-diazaspiro[4.5]dec-2-ene-8-carboxylic acid-(3-methoxyphenyl)amide], on VR1 (human), the inhibition at 10 µM stood at 53.7% and the activation at 10 µM was 19.5%. In assay [1], the inhibition at 10 µM is 46.9% and the activation at 10 µM came to 19.8%.

Turning to `COc1cccc(NC(=O)N2CCC3(CC2)CC(C(=O)Nc2ccc(Cl)cn2)=NO3)c1` [Example 18, 1-oxa-2,8-diazaspiro[4.5]dec-2-ene-3,8-dicarboxylic acid-3-[(5-chloropyridin-2-yl)amide]-8-[(3-methoxyphenyl)amide]], at VR1 (human), the “VR1 (human) (% inhibition compared to 10 μM CP)” value stood at 11.17% and the “VR1 (human) (% stimulation compared to 10 μM CP)” value is given as 0.67%. Also, in assay [1], the “VR1 (rat) (% inhibition compared to 10 μM CP)” value came out at 34.24% and the “VR1 (rat) (% stimulation compared to 10 μM CP)” value was 4.68%.

As to `O=C(Nc1cc(C(F)(F)F)ccc1Cl)N1CCC2(CC1)CC(C(=O)N1CCN(c3ncccc3Cl)CC1)=NO2` [Example 22, 3-[4-(3-chloropyridin-2-yl)piperazine-1-carbonyl]-1-oxa-2,8-diazaspiro[4.5]dec-2-ene-8-carboxylic acid-(2-chloro-5-trifluoromethylphenyl)amide], the inhibition at 10 µM at VR1 (human) is 8.37%; in assay [1], 43.3%. For the same molecule, the activation at 10 µM at VR1 (human) is -0.66%; in assay [1], 2.79%.

For the molecule `O=C(Nc1ccc(Cl)c(C(F)(F)F)c1)N1CCC2(CC1)CC(C(=O)N1CCN(c3ncccc3Cl)CC1)=NO2` [Example 28, 3-[4-(3-chloropyridin-2-yl)piperazine-1-carbonyl]-1-oxa-2,8-diazaspiro[4.5]dec-2-ene-8-carboxylic acid-(4-chloro-3-trifluoromethylphenyl)amide], on VR1 (human), the inhibition at 10 µM was found to be 27.6% and the activation at 10 µM came out at 0.08%. For the same molecule, in assay [1], the inhibition at 10 µM amounted to 45.9% and the activation at 10 µM came out at 0.63%.

Consider `O=C(Nc1ccc(OC(F)(F)F)cc1)N1CCC2(CC1)CC(C(=O)N1CCN(c3ncccc3Cl)CC1)=NO2` [Example 34, 3-[4-(3-chloropyridin-2-yl)piperazine-1-carbonyl]-1-oxa-2,8-diazaspiro[4.5]dec-2-ene-8-carboxylic acid-(4-trifluoromethoxyphenyl)amide], for which the figures for the inhibition at 10 µM (at VR1 (human); in assay [1]) were 51.9% and 86.2%, respectively. Also, the activation at 10 µM at VR1 (human) was -0.13%; in assay [1] it was 6.21%.

With `O=C(Nc1ccc(Cl)cc1)N1CCC2(CC1)CC(C(=O)N1CCN(c3ncccc3Cl)CC1)=NO2` [Example 51, 3-[4-(3-chloropyridin-2-yl)piperazine-1-carbonyl]-1-oxa-2,8-diazaspiro[4.5]dec-2-ene-8-carboxylic acid-(4-chlorophenyl)amide], on VR1 (human), the inhibition at 10 µM amounted to 63.4% and the activation at 10 µM stood at 13.2%. Moreover, in assay [1], the inhibition at 10 µM worked out at 98.8% and the activation at 10 µM was 18.6%.

In the case of `COc1ccc(NC(=O)N2CCC3(CC2)CC(C(=O)N2CCN(c4ncccc4Cl)CC2)=NO3)cc1` [Example 52, 3-[4-(3-chloropyridin-2-yl)piperazine-1-carbonyl]-1-oxa-2,8-diazaspiro[4.5]dec-2-ene-8-carboxylic acid-(4-methoxyphenyl)amide], at VR1 (human), the inhibition at 10 µM was found to be 45.1% and the activation at 10 µM was 47.5%. For the same molecule, in assay [1], the inhibition at 10 µM stood at 55.8% and the activation at 10 µM was found to be 38.5%.
